Data from patent US12098154B2, “Inhibitors of cyclin-dependent kinases” (Dana-Farber Cancer Institute, Inc., priority 2015, dated 2024).

Tests used:
Assay type in all cases: biochemical
CDK2/CycA = CDK2/CycA (Homo sapiens, UniProt P24941); test: CDK2/CycA inhibition (Tables A1, A2)
CDK7/CycH = CDK7/CycH (Homo sapiens, UniProt P50613); test: CDK7/CycH inhibition (Tables A1, A2)
CDK9/CycT = CDK9/CycT (Homo sapiens, UniProt P50750); test: CDK9/CycT inhibition (Tables A1, A2)
CDK9/CycT, sequence (P50750 whole entry): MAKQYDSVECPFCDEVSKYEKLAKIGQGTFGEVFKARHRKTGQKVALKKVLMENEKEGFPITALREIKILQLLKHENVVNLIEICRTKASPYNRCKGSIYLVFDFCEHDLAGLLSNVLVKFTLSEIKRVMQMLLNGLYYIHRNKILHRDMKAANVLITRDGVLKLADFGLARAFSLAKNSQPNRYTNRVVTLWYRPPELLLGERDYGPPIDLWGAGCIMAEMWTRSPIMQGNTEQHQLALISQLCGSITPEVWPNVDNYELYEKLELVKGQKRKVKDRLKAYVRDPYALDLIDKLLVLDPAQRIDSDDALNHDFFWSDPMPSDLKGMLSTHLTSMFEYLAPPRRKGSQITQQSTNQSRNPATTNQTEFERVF
CDK9/CycT, sequence (O60563 whole entry partner): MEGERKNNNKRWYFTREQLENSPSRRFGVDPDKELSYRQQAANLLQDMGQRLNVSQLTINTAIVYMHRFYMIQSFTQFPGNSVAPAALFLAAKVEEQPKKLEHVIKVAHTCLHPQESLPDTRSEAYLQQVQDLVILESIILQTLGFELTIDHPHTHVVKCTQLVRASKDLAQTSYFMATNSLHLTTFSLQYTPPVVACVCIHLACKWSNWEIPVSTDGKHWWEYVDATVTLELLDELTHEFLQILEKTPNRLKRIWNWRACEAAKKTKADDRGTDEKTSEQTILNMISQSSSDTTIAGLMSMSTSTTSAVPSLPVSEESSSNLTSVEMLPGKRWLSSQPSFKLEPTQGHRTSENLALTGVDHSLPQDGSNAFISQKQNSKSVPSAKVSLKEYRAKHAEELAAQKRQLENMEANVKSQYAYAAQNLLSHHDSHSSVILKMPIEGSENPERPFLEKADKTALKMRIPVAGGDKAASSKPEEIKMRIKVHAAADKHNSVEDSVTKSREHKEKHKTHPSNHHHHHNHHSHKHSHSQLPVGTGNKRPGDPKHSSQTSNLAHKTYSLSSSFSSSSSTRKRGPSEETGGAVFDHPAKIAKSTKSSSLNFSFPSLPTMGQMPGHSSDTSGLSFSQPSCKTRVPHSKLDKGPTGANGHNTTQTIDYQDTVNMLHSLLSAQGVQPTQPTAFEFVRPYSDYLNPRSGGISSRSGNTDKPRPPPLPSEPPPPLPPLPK

CDK7/CycH, sequence (P50613 whole entry): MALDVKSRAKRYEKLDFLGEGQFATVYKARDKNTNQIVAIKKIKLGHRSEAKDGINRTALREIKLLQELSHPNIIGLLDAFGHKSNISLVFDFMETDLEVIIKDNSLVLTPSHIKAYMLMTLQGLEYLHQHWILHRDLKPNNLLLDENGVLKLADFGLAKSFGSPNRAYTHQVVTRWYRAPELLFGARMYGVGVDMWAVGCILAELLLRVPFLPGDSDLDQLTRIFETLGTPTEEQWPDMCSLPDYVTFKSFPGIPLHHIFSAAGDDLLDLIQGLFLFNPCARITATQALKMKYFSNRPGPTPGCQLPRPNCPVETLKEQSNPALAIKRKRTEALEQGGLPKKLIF
CDK7/CycH, sequence (P51946 whole entry partner): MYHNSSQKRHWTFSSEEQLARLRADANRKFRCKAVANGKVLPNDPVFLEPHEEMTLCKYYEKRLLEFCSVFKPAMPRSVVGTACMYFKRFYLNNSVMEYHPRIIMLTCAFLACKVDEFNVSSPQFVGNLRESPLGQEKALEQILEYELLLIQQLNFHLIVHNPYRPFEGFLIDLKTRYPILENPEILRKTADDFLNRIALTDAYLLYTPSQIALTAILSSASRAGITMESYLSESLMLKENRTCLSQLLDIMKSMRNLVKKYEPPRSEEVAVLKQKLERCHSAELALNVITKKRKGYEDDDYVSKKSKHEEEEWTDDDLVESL

| Structure (SMILES) | IC50 (CDK2/CycA) | IC50 (CDK7/CycH) | IC50 (CDK9/CycT) |
| --- | --- | --- | --- |
| C=CC(=O)NC1CCCC(Nc2nc(N[C@H]3CC[C@H](N(C)C)CC3)nc3c(CC)cnn23)C1 (stereo partly shown) [MFH-2-78-1, N-(3-((2-(((1r,4r)-4-(dimethylamino)cyclohexyl)amino)-8-ethylpyrazolo[1,5-a][1,3,5]triazin-4-yl)amino)cyclohexyl)acrylamide] | > 1 µM | 0.842 µM | 0.0687 µM |
| C=CC(=O)Nc1cccc(Nc2cc(N3CCCC[C@H]3CCO)nc3c(CC)cnn23)c1 [MFH-1-141-1, (S)—N-(3-(3-ethyl-5-(2-(2-hydroxyethyl)piperidin-1-yl)pyrazolo[1,5-a]pyrimidin-7-ylamino)phenyl)acrylamide] | 0.932 µM | 1.21 µM | 0.0239 µM |
| C=CC(=O)Nc1ccc(C(=O)N2CCCC(Nc3cc(NC4CCC(N(C)C)CC4)nc4c(CC)cnn34)C2)cc1 (stereo not shown) [THZ-4-148-1] | 7.05 µM | > 10 µM | 1.71 µM |
| C=CC(=O)Nc1cccc(Nc2nc(N3CCCC[C@H]3CCO)nc3c(CC)cnn23)c1 [MFH-2-53-1, (S)—N-(3-(8-ethyl-2-(2-(2-hydroxyethyl)piperidin-1-yl)pyrazolo[1,5-a][1,3,5]triazin-4-ylamino)phenyl)acrylamide] | 0.0536 µM | 1.1 µM | 0.0616 µM |
| C=CC(=O)Nc1ccc(C(=O)Nc2cccc(Nc3cc(N[C@H]4CC[C@H](N(C)C)CC4)nc4c(CC)cnn34)c2)cc1 [SB1-E-22, 4-Acrylamido-N-(3-(5-((1r,4r)-4-(dimethylamino)cyclohexylamino)-3-ethylpyrazolo[1,5-a]pyrimidin-7-ylamino)phenyl)benzamide] | 28.3 µM | 0.246 µM | 0.0889 µM |
| C=CC(=O)NCc1cccc(Nc2nc(N[C@H]3CC[C@H](N(C)C)CC3)nc3c2ncn3C(C)C)c1 [SB1-E-16, N-(3-(2-((1r,4r)-4-(Dimethylamino)cyclohexylamino)-9-isopropyl-9H-purin-6-ylamino)benzyl)acrylamide] | 0.0303 µM | 0.255 µM | 0.116 µM |
| C=CC(=O)N[C@H]1CC[C@@H](Nc2cc(N3CCCC[C@H]3CCO)nc3c(CC)cnn23)CC1 [MFH-1-169-1, N-((1R,4s)-4-((3-ethyl-5-((S)-2-(2-hydroxyethyl)piperidin-1-yl)pyrazolo[1,5-a]pyrimidin-7-yl)amino)cyclohexyl)acrylamide] | 3.88 µM | 7.25 µM | 0.135 µM |
| C=CC(=O)N[C@H]1CC[C@H](Nc2cc(N3CCCC[C@H]3CCO)nc3c(CC)cnn23)CC1 [MFH-1-175-1, N-((1S,4r)-4-((3-ethyl-5-((S)-2-(2-hydroxyethyl)piperidin-1-yl)pyrazolo[1,5-a]pyrimidin-7-yl)amino)cyclohexyl)acrylamide] | 1.08 µM | 0.442 µM | 0.0482 µM |
| C=CC(=O)Nc1cccc(CNc2cc(N3CCCC[C@H]3CCO)nc3c(CC)cnn23)c1 [MFH-1-49-1, (S)—N-(3-(((3-ethyl-5-(2-(2-hydroxyethyl)piperidin-1-yl)pyrazolo[1,5-a]pyrimidin-7-yl)amino)methyl)phenyl)acrylamide] | 0.0276 µM | 0.165 µM |  |
| C=CC(=O)Nc1cccc(Nc2nc(N[C@H]3CC[C@@H](N(C)C)CC3)nc3c2ncn3C(C)C)c1 [E-1(SB1-E-14), N-(3-(2-((1s,4s)-4-(Dimethylamino)cyclohexylamino)-9-isopropyl-9H-purin-6-ylamino)phenyl)acrylamide] | 0.735 µM | 0.254 µM | 1.36 µM |
| C=CC(=O)Nc1ccc(C(=O)Nc2cccc(Nc3nc(N4CCCCC4CCO)nc4c(CC)cnn34)c2)cc1 (stereo not shown) [SB1-E-19, 4-Acrylamido-N-(3-(8-ethyl-2-(2-(2-hydroxyethyl)piperidin-1-yl)pyrazolo[1,5-a][1,3,5]triazin-4-ylamino)phenyl)benzamide] | 0.295 µM | 0.383 µM | 0.123 µM |
| C=CC(=O)Nc1ccc(C(=O)N2CCCC(Nc3nc(N4CCCCC4CCO)nc4c3ncn4C(C)C)C2)cc1 (stereo not shown) [THZ-4-149-1] | > 1 µM | 4.43 µM | 2.29 µM |
| C=CC(=O)Nc1cccc(CNc2cc(N3CCCC[C@@H]3CCO)nc3c(CC)cnn23)c1 [MFH-1-56-1, (R)—N-(3-((3-ethyl-5-(2-(2-hydroxyethyl)piperidin-1-yl)pyrazolo[1,5-a]pyrimidin-7-ylamino)methyl)phenyl)acrylamide] | 1.53 µM | 0.345 µM |  |
| C=CC(=O)Nc1ccc(Nc2cc(N3CCCC[C@H]3CCO)nc3c(CC)cnn23)cc1 [MFH-1-187-1, (S)—N-(4-((3-ethyl-5-(2-(2-hydroxyethyl)piperidin-1-yl)pyrazolo[1,5-a]pyrimidin-7-yl)amino)phenyl)acrylamide] | 0.171 µM | 0.279 µM | 0.0235 µM |
| C=CC(=O)Nc1ccc(C(=O)Nc2cccc(Nc3cc(N[C@H]4CC[C@H](N(C)C)CC4)nc4c(C(C)C)cnn34)c2)cc1 [SB1-E-25, 4-Acrylamido-N-(3-(5-((1r,4r)-4-(dimethylamino)cyclohexylamino)-3-isopropylpyrazolo[1,5-a]pyrimidin-7-ylamino)phenyl)benzamide] | 33.4 µM | 0.41 µM | 0.387 µM |
| C=CC(=O)Nc1ccc(C(=O)Nc2cccc(Nc3nc(N[C@H]4CC[C@H](N(C)C)CC4)nc4c3ncn4C(C)C)c2)cc1 [THZ-5-38-1, 4-Acrylamido-N-(3-((2-((trans-4-(dimethylamino)cyclohexyl)amino)-9-isopropyl-9H-purin-6-yl)amino)phenyl)benzamide] | 0.563 µM | 0.0259 µM | 0.22 µM |
| C=CC(=O)Nc1ccc(C(=O)N2CCCC(Nc3cc(N4CCCC(N)C4)nc4c(CC)cnn34)C2)cc1 (stereo not shown) [THZ-4-141-1] | > 1 µM | 3.6 µM | 3.57 µM |
| C=CC(=O)Nc1cccc(Nc2cc(N3CCCC[C@@H]3CCO)nc3c(CC)cnn23)c1 [MFH-1-143-1, (R)—N-(3-(3-ethyl-5-(2-(2-hydroxyethyl)piperidin-1-yl)pyrazolo[1,5-a]pyrimidin-7-ylamino)phenyl)acrylamide] | > 10 µM | 2.51 µM | 0.859 µM |
| C=CC(=O)Nc1cccc(CNc2nc(N[C@H]3CC[C@H](N(C)C)CC3)nc3c(CC)cnn23)c1 [MFH-2-67-1, N-(3-(((2-(((1r,4r)-4-(dimethylamino)cyclohexyl)amino)-8-ethylpyrazolo[1,5-a][1,3,5]triazin-4-yl)amino)methyl)phenyl)acrylamide] | 1.02 µM | 0.0237 µM | 0.103 µM |
| C=CC(=O)Nc1ccc(C(=O)Nc2cccc(Nc3cc(N4CCCCC4CCO)nc4c(CC)cnn34)c2)cc1 (stereo not shown) [SB1-E-24, 4-Acrylamido-N-(3-(3-ethyl-5-(2-(2-hydroxyethyl)piperidin-1-yl)pyrazolo[1,5-a]pyrimidin-7-ylamino)phenyl)benzamide] | 1.26 µM | 0.774 µM | 0.14 µM |
| C=CC(=O)Nc1cccc(Nc2cc(N3CCCC(N)C3)nc3c(CC)cnn23)c1 (stereo not shown) [MFH-3-140-1, N-(3-(5-(3-aminopiperidin-1-yl)-3-ethylpyrazolo[1,5-a]pyrimidin-7-ylamino)phenyl)acrylamide] | 4.19 µM | 0.356 µM | 0.465 µM |
| C=CC(=O)NC1CCCC(Nc2cc(N3CCCC[C@H]3CCO)nc3c(CC)cnn23)C1 (stereo partly drawn) [MFH-1-167-1, N-(3-(3-ethyl-5-((S)-2-(2-hydroxyethyl)piperidin-1-yl)pyrazolo[1,5-a]pyrimidin-7-ylamino)cyclohexyl)acrylamide] | 0.328 µM | 0.739 µM | 0.0247 µM |
